Measurements reported in patent publication US8299048B2, “Hexahydrocyclopentyl[f]indazole sulfonamides and derivatives thereof as selective glucocorticoid receptor modulators” (Merck Sharp & Dohme Corp., priority 2008, dated 2012).
pEC50: −log10 of the molar value.

Key:
human GR [1] = molecular target: T1, human GR (Homo sapiens, UniProt P04150); experiment: Trans-Activation Modulation of Glucocorticoid Receptor (GRAMMER), MMTV-LUC reporter, agonist mode; assay type: cell-based; parameters: endogenous in cells; details: for Emax: A549, A549 cells, maximum activity, read-out: Transactivation A549 Cells GRAMMER Emax; for pEC50: A549 cells, inflection point, read-out: Transactivation A549 Cells GRAMMER IP
T1 sequence (P04150 1-777): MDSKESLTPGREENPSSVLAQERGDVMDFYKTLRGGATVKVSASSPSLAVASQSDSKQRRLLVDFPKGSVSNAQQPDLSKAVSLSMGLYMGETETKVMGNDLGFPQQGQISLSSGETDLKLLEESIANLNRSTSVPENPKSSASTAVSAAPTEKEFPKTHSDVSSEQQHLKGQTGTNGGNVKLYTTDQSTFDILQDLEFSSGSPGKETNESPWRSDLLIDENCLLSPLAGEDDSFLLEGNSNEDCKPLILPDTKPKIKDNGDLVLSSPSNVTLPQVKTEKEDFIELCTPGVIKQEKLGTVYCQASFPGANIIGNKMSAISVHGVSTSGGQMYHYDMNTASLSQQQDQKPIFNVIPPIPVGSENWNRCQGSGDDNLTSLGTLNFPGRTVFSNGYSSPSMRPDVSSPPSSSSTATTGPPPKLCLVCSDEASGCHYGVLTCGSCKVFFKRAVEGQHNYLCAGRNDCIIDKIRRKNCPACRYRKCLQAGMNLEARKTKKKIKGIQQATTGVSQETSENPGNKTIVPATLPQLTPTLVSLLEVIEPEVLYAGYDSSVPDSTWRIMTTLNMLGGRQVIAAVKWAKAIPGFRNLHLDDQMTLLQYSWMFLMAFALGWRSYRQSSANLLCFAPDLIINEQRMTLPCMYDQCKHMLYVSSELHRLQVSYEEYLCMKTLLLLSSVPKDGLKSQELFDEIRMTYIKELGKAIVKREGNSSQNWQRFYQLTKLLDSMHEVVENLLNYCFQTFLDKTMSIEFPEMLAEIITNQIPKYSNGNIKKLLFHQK
In short: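 Readout is luciferase from a modified MMTV LTR promoter after 24 h compound exposure alongside 10 nM dexamethasone (100% activity reference), DMSO ≤1%.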

human GR [2] = molecular target: T1, human GR; experiment: Transrepression Assay (GITAR), TNFα-β-lactamase reporter in U937 cells; assay type: cell-based; parameters: U937 cells contain an endogenous glucocorticoid receptor (GR); endogenous in cells; host or cells: U937 cells stably transfected with the TNF-alpha promoter/beta-lactamase reporter; details: for GITAR > GRAMM % SEP: GITAR Emax minus GRAMMER Emax; for pEC50: U937 cells, inflection point, read-out: Transrepression U937 Cells GITAR IP
In short: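 Repression normalised to 100 nM dexamethasone (100%), measured with CCF2-AM β-lactamase substrate after 70–90 min at room temperature. Stably transfected U937 cells were exposed to compound 30–45 min, then to PMA (5 ng/ml final) plus LPS (100 ng/ml final) overnight (~18 hr), 37° C.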

[3] = U-937, U937 cells, maximum activity, read-out: Transrepression U937 Cells GITAR Emax
[4] = U-937, activity repressed by 100 nM dexamethasone alone set as 100%, read-out: maximal activity in the transrepression (GITAR) assay

Row | SMILES | Emax (human GR [1]) [%] | pEC50 (human GR [1]) | GITAR > GRAMM % SEP (human GR [2]) [%] | pEC50 (human GR [2]) | Emax (human GR [2]; [3]) [%] | Emax (human GR [2]; [4]) [%]
1 | C[C@]12Cc3cnn(-c4ccc(F)cc4)c3C=C1CC[C@@H]2CN(CCc1ccccc1F)S(=O)(=O)Cc1ccccc1C(F)(F)F [Example 108, N-[2-(2-fluorophenyl)ethyl]-N-{[(4αR,5S)-1-(4-fluorophenyl)-4α-methyl-1,4,4α,5,6,7-hexahydrocyclopenta[f]indazol-5-yl]methyl}-1-[2-(trifluoromethyl)phenyl]methanesulfonamide] | 46 | 6.28 | 24.6 | 6.73 | 70.5 | > 5
2 | C[C@]12Cc3cnn(-c4ccc(F)cc4)c3C=C1CC[C@@H]2CN(CC1CCCO1)S(=O)(=O)Cc1cccc(C(F)(F)F)c1 (stereo partly drawn) [Example 110, N-{[(4αR,5S)-1-(4-fluorophenyl)-4α-methyl-1,4,4α,5,6,7-hexahydrocyclopenta[f]indazol-5-yl]methyl}-N-(tetrahydrofuran-2-ylmethyl)-1-[3-(trifluoromethyl)phenyl]methanesulfonamide] | 4.9 | 5.96 | 21.3 | 6.20 | 26.2 | > 5
3 | C[C@]12Cc3cnn(-c4ccc(F)cc4)c3C=C1CC[C@@H]2CN(CCc1ccccc1F)S(=O)(=O)Cc1ccc(Cl)c(Cl)c1 [Example 111, 1-(3,4-dichlorophenyl)-N-[2-(2-fluorophenyl)ethyl]-N-{[(4αR,5S)-1-(4-fluorophenyl)-4α-methyl-1,4,4α,5,6,7-hexahydrocyclopenta[f]indazol-5-yl]methyl}methanesulfonamide] | 37.6 | 6.13 | 38.1 | 6.49 | 75.7 | > 5
4 | C[C@H](O)CN(C[C@H]1CCC2=Cc3c(cnn3-c3ccc(F)cc3)C[C@@]21C)S(=O)(=O)c1ccc(F)c(Cl)c1 [Example 112, 3-chloro-4-fluoro-N-{[(4αR,5S)-1-(4-fluorophenyl)-4α-methyl-1,4,4α,5,6,7-hexahydrocyclopenta[f]indazol-5-yl]methyl}-N-[(2S)-2-hydroxypropyl]benzenesulfonamide] | 33.4 | 6.37 | 32.3 | 6.47 | 65.7 | > 5
5 | C[C@@H](O)CN(C[C@H]1CCC2=Cc3c(cnn3-c3ccc(F)cc3)C[C@@]21C)S(=O)(=O)c1ccc(F)c(Cl)c1 [Example 115, 3-chloro-4-fluoro-N-{[(4αR,5S)-1-(4-fluorophenyl)-4α-methyl-1,4,4α,5,6,7-hexahydrocyclopenta[f]indazol-5-yl]methyl}-N-[(2R)-2-hydroxypropyl]benzenesulfonamide] | 26.1 | 6.10 | 31.2 | 6.19 | 57.4 | > 5
6 | C[C@]12Cc3cnn(-c4ccc(F)cc4)c3C=C1CC[C@@H]2CN(CCc1ccccc1O)S(=O)(=O)c1ccccc1F [Example 116, 2-fluoro-N-{[(4αR,5S)-1-(4-fluorophenyl)-4α-methyl-1,4,4α,5,6,7-hexahydrocyclopenta[f]indazol-5-yl]methyl}-N-[2-(2-hydroxyphenyl)ethyl]benzenesulfonamide] | 73.5 | 6.17 | 7.7 | 7.02 | 81.2 | > 5
7 | C[C@]12Cc3cnn(-c4ccc(F)cc4)c3C=C1CC[C@@H]2CN(CCO)S(=O)(=O)c1ccccc1C(N)=O [Example 117, 2-{[{[(4αR,5S)-1-(4-fluorophenyl)-4α-methyl-1,4,4α,5,6,7-hexahydrocyclopenta[f]indazol-5-yl]methyl}(2-hydroxyethyl)amino]sulfonyl}benzamide] | 45.1 | 6.35 | 28.6 | 6.27 | 73.7 | > 5
8 | COCCN(C[C@H]1CCC2=Cc3c(cnn3-c3ccc(F)cc3)C[C@@]21C)S(=O)(=O)CCN1C(=O)c2ccccc2C1=O [Example 118, 2-(1,3-dioxo-1,3-dihydro-2H-isoindol-2-yl)-N-{[(4αR,5S)-1-(4-fluorophenyl)-4α-methyl-1,4,4α,5,6,7-hexahydrocyclopenta[f]indazol-5-yl]methyl}-N-(2-methoxyethyl)ethanesulfonamide] | 8.7 | 6.07 | 25.4 | 5.98 | 34.1 | > 5
9 | C[C@]12Cc3cnn(-c4ccc(F)cc4)c3C=C1CC[C@@H]2CN(CCc1ccccc1F)S(=O)(=O)CCN1C(=O)c2ccccc2C1=O [Example 121, 2-(1,3-dioxo-1,3-dihydro-2H-isoindol-2-yl)-N-[2-(2-fluorophenyl)ethyl]-N-{[(4αR,5S)-1-(4-fluorophenyl)-4α-methyl-1,4,4α,5,6,7-hexahydrocyclopenta[f]indazol-5-yl]methyl}ethanesulfonamide] | 15.9 | 6.62 | 17.9 | 6.81 | 33.8 | > 5
10 | C[C@]12Cc3cnn(-c4ccc(F)cc4)c3C=C1CC[C@@H]2CN(CCc1ccccc1O)S(=O)(=O)Cc1cccc(C(F)(F)F)c1 [Example 122, N-{[(4αR,5S)-1-(4-fluorophenyl)-4α-methyl-1,4,4α,5,6,7-hexahydrocyclopenta[f]indazol-5-yl]methyl}-N-[2-(2-hydroxyphenyl)ethyl]-1-[3-(trifluoromethyl)phenyl]methanesulfonamide] | 8.9 | 6.30 | 30.8 | 6.38 | 39.7 | > 5

The next compounds have a higher pEC50 (human GR [1]) than those just listed; values first:

Row | Emax (human GR [1]) [%] | pEC50 (human GR [1]) | GITAR > GRAMM % SEP (human GR [2]) [%] | pEC50 (human GR [2]) | Emax (human GR [2]; [3]) [%] | Emax (human GR [2]; [4]) [%] | SMILES
11 | 54.1 | 6.68 | 37.0 | 6.72 | 91.1 | > 5 | CC(C1CCC2=Cc3c(cnn3-c3ccc(F)cc3)C[C@@]21C)N(CC1CC1)S(=O)(=O)CC(F)(F)F (stereo partly drawn) [Example 109, N-(cyclopropylmethyl)-2,2,2-trifluoro-N-{1-[(4αR)-1-(4-fluorophenyl)-4α-methyl-1,4,4α,5,6,7-hexahydrocyclopenta[f]indazol-5-yl]ethyl}ethanesulfonamide]
12 | 6.6 | 6.69 | 9.3 | 6.22 | 15.9 | > 5 | COc1ccccc1CCN(C[C@H]1CCC2=Cc3c(cnn3-c3ccc(F)cc3)C[C@@]21C)S(=O)(=O)Cc1cccc(C(F)(F)F)c1 [Example 119, N-{[(4αR,5S)-1-(4-fluorophenyl)-4α-methyl-1,4,4α,5,6,7-hexahydrocyclopenta[f]indazol-5-yl]methyl}-N-[2-(2-methoxyphenyl)ethyl]-1-[3-(trifluoromethyl)phenyl]methanesulfonamide]
13 | 80.3 | 6.79 | 18.2 | 6.83 | 98.5 | > 5 | C[C@@H](CN(C[C@H]1CCC2=Cc3c(cnn3-c3ccc(F)cc3)C[C@@]21C)S(=O)(=O)CC(F)(F)F)OS(=O)(=O)CC(F)(F)F [Example 114, (1S)-2-{{[(4αR,5S)-1-(4-fluorophenyl)-4α-methyl-1,4,4α,5,6,7-hexahydrocyclopenta[f]indazol-5-yl]methyl}[(2,2,2-trifluoroethyl)sulfonyl]amino}-1-methylethyl 2,2,2-trifluoroethanesulfonate]
14 | 73.2 | 6.96 | 18.2 | 7.11 | 91.5 | > 5 | COc1ccccc1CCN(C[C@H]1CCC2=Cc3c(cnn3-c3ccc(F)cc3)C[C@@]21C)S(=O)(=O)CC(F)(F)F [Example 120, 2,2,2-trifluoro-N-{[(4αR,5S)-1-(4-fluorophenyl)-4α-methyl-1,4,4α,5,6,7-hexahydrocyclopenta[f]indazol-5-yl]methyl}-N-[2-(2-methoxyphenyl)ethyl]ethanesulfonamide]
15 | 85.4 | 7.26 | 8.7 | 7.23 | 94 | > 5 | C[C@H](O)CN(C[C@H]1CCC2=Cc3c(cnn3-c3ccc(F)cc3)C[C@@]21C)S(=O)(=O)CC(F)(F)F [Example 113]
